Data on 25 compounds can be found in patent US4276304A, “Novel benzylalcohol derivative and process for preparing the same” (priority 1979, dated 1981).

Data set [1] concerns blood sugar. In words: Blood sugar-lowering activity (oral test compound, subcutaneous glucose load). The format is in vivo, male ddY mice. Conditions: for minimal effective dose: Mus musculus, 1 h, read-out: Minimum effective dose (blood sugar-lowering activity). The method, then: For example, when the blood sugar-lowering activity was estimated by orally administering a test compound to mice immediately before subcutaneous injection of glucose, said activity of the compound of the present invention was about 100 to about 1000 times stronger than that of Phenformin (Chemical name: 1-phenethylbiguanide).
An aqueous solution or suspension (10 ml/kg) of a test compound was administered orally through a stomach tube to a group of male ddY mice (each group consisting of five mice) which fasted for 20 hours. A physiological saline solution (10 ml/kg) containing 10 w/v % glucose was injected subcutaneously to the mice immediately after the oral administration of the test compound. One hour after the injection of glucose, 0.02 ml of blood was collected from the tail vein of the mice. Then, the amount of glucose in the blood sample was estimated by the glucose oxidase method (H. U. Bergmeyer & E. Bernt, "Methods of Enzymatic Analysis", H. U. Bergmeyer (Ed.), Acadamic Press, New York & London, 1963, page 123). The blood sugar-lowering activity of the test compound was calculated by the following formula: [formula] Further, on the basis of the potency ratio calculated above, the activity of the test compound was expressed as follows: […]

In the next data set the test system is blood platelets. Description: Preventive effect upon the aggregation of blood platelets (collagen-induced, platelet-rich plasma). The settings on record: for inhibition at 100 µg/mL: Rattus norvegicus, Platelet. The data set is classed as cell-based, male Sprague-Dawley rats.
In data set [2] the test system is blood sugar. Conditions: U.S. Pat. Nos. 4,032,575 and 4,131,686, Japanese Patent Publication No. 71428/1977; cited from earlier work.
The next data set concerns mice. In words: Acute toxicity / maximum tolerance dose (intraperitoneal injection). The settings on record: 48 hours after intraperitoneal injection. The format is in vivo. The procedure: For example, the maximum tolerance dose (M.T.D.) of α-[(α,α-dimethyl-3,4-dimethoxyphenethylamino)methyl]-2-benzyloxybenzylalcohol oxalate and α-[(α,α-dimethyl-3,4-dimethoxyphenethylamino)methyl]-2-chlorobenzylalcohol hydrochloride which was estimated 48 hours after intraperitoneal injection thereof to a group of 4 mice was not less than 100 mg/kg.

[3] abbreviates: 100 μg/ml, graded against acetylsalicylic acid 100 μg/ml.
Where [4] appears, read: test compound 100 μg/ml, collagen, rat PRP.
Setting [5] is: read-out: Inhibition (%) against platelet aggregation, A* (test compound group).

“And” between values parts separate entries of the source, which are not always exact repeats. Equal entries are not always repeated. Where two headings read alike, the source gives them in different places. Bounds are passed on as bounds.

Take `COc1ccc(CC(C)(C)NCC(O)c2ccccc2OCc2ccccc2)cc1` (centres unmarked) [compound 2]: in the data set with blood sugar [1] (oral, mice), the minimal effective dose was 1 mg/kg. For the same compound, the inhibition at 100 µg/mL was > 10% with blood platelets (100 μg/ml, graded against acetylsalicylic acid 100 μg/ml, read-out: Platelet aggregation inhibiting activity) and 27% with blood platelets (test compound 100 μg/ml, collagen, rat PRP, read-out: Inhibition (%) against platelet aggregation, A* (test compound group)).
As to “α-[(α,α-dimethyl-2,3,4-trimethoxyphenethylamino)methyl]- 2-benzyloxybenzylalcohol 1/2 oxalate [Test compound 12]”, the “Minimum effective dose (blood sugar-lowering activity)” value in the data set on blood sugar [1] (oral, mice) was determined as 1.0 mg/kg. Besides, the “Platelet aggregation inhibiting activity” value in the data set on blood platelets (setting [3]) is recorded as “++”. Besides, the “Inhibition (%) against platelet aggregation, A* (test compound group)” value (shortened to “Inhibition (%) … (test compound group)”) in the data set on blood platelets (setting [4]) is on record as 85%.
For “α-[(α,α-dimethyl-4-methoxyphenethylamino)methyl]-2-n-butoxybenzylalcohol hydrochloride [Test compound 4]”, in that order: 0.1 mg/kg, “+ (not less than 10% inhibition of platelet aggregation but said percentage inhibition was not higher than that of acetylsalicylic acid (100 μg/ml))” and 31%.
Turning to “α-[(α,α-dimethyl-3,4-methylenedioxyphenethylamino)methyl]-2-hydroxybenzylalcohol 1/2 oxalate [Test compound 15]”, the “Minimum effective dose (blood sugar-lowering activity)” value in the data set on blood sugar [1] (oral, mice) is reported as 5.0 mg/kg.
Turning to “α-[(α,α-dimethyl-3,4-dimethoxyphenethylamino)methyl]-2-hydroxybenzylalcohol 1/2 oxalate [Test compound 6]”, in the data set with blood sugar [1] (oral, mice), the “Minimum effective dose (blood sugar-lowering activity)” value was determined as 1.0 mg/kg. In addition, in the data set on blood platelets (setting [3]), the “Platelet aggregation inhibiting activity” value was “++”.
For the compound `COc1ccc(CC(C)(C)NCC(O)c2ccccc2O)cc1` (centres unmarked) [compound 1], the minimal effective dose with blood sugar [1] (po) was 0.3 mg/kg. Further, the “Platelet aggregation inhibiting activity” value in the data set on blood platelets (setting [3]) is given as “++”. The inhibition at 100 µg/mL with blood platelets (setting [5]) came to 90%.
Turning to `COc1ccc(CCNCC(O)c2ccccc2OC)cc1OC` (stereo not drawn) [α-[(3,4-dimethoxyphenethylamino)methyl]-2-methoxybenzylalcohol, reference compound], in the data set on blood platelets, the “preventive effect upon the aggregation of blood platelets (in words)” value is “no substantial preventive effect”. In the data set on blood sugar [2], the “blood sugar-lowering activity (in words)” value is recorded as “show a blood sugar-lowering activity”.
For the compound “α-[(α,α-dimethyl-3,4-methylenedioxyphenethylamino)methyl]-2-methoxybenzylalcohol 1/2 succinate [Test compound 17]”, the “Minimum effective dose (blood sugar-lowering activity)” value in the data set with blood sugar [1] (oral, mice) is recorded as 2.0 mg/kg.
Turning to `CC(=O)Oc1ccccc1C(=O)O` [acetylsalicylic acid, reference compound], the “Inhibition (%) against platelet aggregation, B** (acetylsalicylic acid group)” value in the data set on blood platelets (acetylsalicylic acid 100 μg/ml, comparison group for the test compound of the same line) is 31% and 58% and 50% and 56% and 54%.
For “α-[(α,α-dimethyl-4-methoxyphenethylamino)methyl]-2-methoxybenzylalcohol 1/2 oxalate [Test compound 3]”, the “Minimum effective dose (blood sugar-lowering activity)” value in the data set on blood sugar [1] (oral, mice) worked out at 1.0 mg/kg. Also, the “Platelet aggregation inhibiting activity” value in the data set with blood platelets (setting [3]) is given as “+ (not less than 10% inhibition of platelet aggregation but said percentage inhibition was not higher than that of acetylsalicylic acid (100 μg/ml))”. The “Inhibition (%) … (test compound group)” value in the data set with blood platelets (setting [4]) came out at 57%.
Turning to `COc1ccc(CCNCC(O)c2ccccc2O)cc1OC` (stereo not drawn) [α-[(3,4-dimethoxyphenethylamino)methyl]-2-hydroxybenzylalcohol, reference compound], the “preventive effect upon the aggregation of blood platelets (in words)” value in the data set with blood platelets is reported as “no substantial preventive effect”. In the data set with blood sugar [2], the “blood sugar-lowering activity (in words)” value is listed as “show a blood sugar-lowering activity”.
For “α-[(α,α-dimethyl-3,4-dimethoxyphenethylamino)methyl]-2-benzyloxybenzylalcohol oxalate [Test compound 7]”, the “maximum tolerance dose (M.T.D.)” value with mice was “not less than 100 mg/kg”. In addition, the “Minimum effective dose (blood sugar-lowering activity)” value in the data set with blood sugar [1] (oral, mice) was 0.3 mg/kg. For the same compound, in the data set with blood platelets (setting [3]), the “Platelet aggregation inhibiting activity” value was “+ (not less than 10% inhibition of platelet aggregation but said percentage inhibition was not higher than that of acetylsalicylic acid (100 μg/ml))”. Moreover, in the data set with blood platelets (setting [4]), the “Inhibition (%) … (test compound group)” value turned out to be 17%.
As for “α-[(α,α-dimethyl-4-methoxyphenethylamino)methyl]-2-benzyloxybenzylalcohol hydrochloride [Example 7]”, the “Minimum effective dose (blood sugar-lowering activity)” value with blood sugar [1] (oral, mice) was found to be 0.3 mg/kg. In addition, the “Platelet aggregation inhibiting activity” value in the data set with blood platelets (setting [3]) was “++”. The “Inhibition (%) … (test compound group)” value in the data set on blood platelets (setting [4]) turned out to be 90%.
Turning to “α-[(α,α-dimethyl-2,3,4-trimethoxyphenethylamino)methyl]- 2-methoxybenzylalcohol hydrochloride [Test compound 13]”, the “Minimum effective dose (blood sugar-lowering activity)” value in the data set on blood sugar [1] (oral, mice) worked out at 1.0 mg/kg. In the data set on blood platelets (setting [3]), the “Platelet aggregation inhibiting activity” value was “+ (not less than 10% inhibition of platelet aggregation but said percentage inhibition was not higher than that of acetylsalicylic acid (100 μg/ml))”. Moreover, in the data set on blood platelets (setting [4]), the “Inhibition (%) … (test compound group)” value stood at 37%.
With “α-[(α,α-dimethyl-2,3,4-trimethoxyphenethylamino)methyl]- 2-chlorobenzylalcohol hydrochloride [Test compound 14]”, the “Minimum effective dose (blood sugar-lowering activity)” value in the data set with blood sugar [1] (oral, mice) was 0.1 mg/kg. In the data set on blood platelets (setting [3]), the “Platelet aggregation inhibiting activity” value is on record as “++”. Besides, the “Inhibition (%) … (test compound group)” value in the data set on blood platelets (setting [4]) was 93%.
Regarding “α-[(α,α-dimethyl-3,4-dimethoxyphenethylamino)methyl]-2-chlorobenzylalcohol hydrochloride [Test compound 10]”, the “maximum tolerance dose (M.T.D.)” value with mice is “not less than 100 mg/kg”. Besides, the “Minimum effective dose (blood sugar-lowering activity)” value in the data set on blood sugar [1] (oral, mice) is given as 1.0 mg/kg. The “Platelet aggregation inhibiting activity” value with blood platelets (setting [3]) is given as “++”. The “Inhibition (%) … (test compound group)” value with blood platelets (setting [4]) is reported as 84%.
“α-[(α,α-dimethyl-4-methoxyphenethylamino)methyl]-2-hydroxybenzylalcohol 1/2 oxalate [Test compound 1]”: the “Minimum effective dose (blood sugar-lowering activity)” value in the data set with blood sugar [1] (oral, mice) is 0.3 mg/kg. Further, in the data set with blood platelets (setting [3]), the “Platelet aggregation inhibiting activity” value is on record as “+ (not less than 10% inhibition of platelet aggregation but said percentage inhibition was not higher than that of acetylsalicylic acid (100 μg/ml))”. In addition, the “Inhibition (%) … (test compound group)” value in the data set with blood platelets (setting [4]) is 22%.
On to `COc1ccc(CC(C)(C)NCC(O)c2ccccc2OC)cc1` (centres unmarked) [compound 3], for which, in the data set on blood sugar [1] (po), the minimal effective dose came out at 0.1 mg/kg. Besides, in the data set on blood platelets (setting [3]), the “Platelet aggregation inhibiting activity” value is reported as “++”. For the same compound, the inhibition at 100 µg/mL with blood platelets (setting [5]) amounted to 80%.
With `COc1ccc(CCNCC(O)c2ccccc2OCc2ccccc2)cc1OC` (stereo not drawn) [α-[(3,4-dimethoxyphenethylamino)methyl]-2-benzyloxybenzylalcohol], in the data set on blood sugar [2], the “blood sugar-lowering activity (in words)” value is listed as “show a blood sugar-lowering activity”.
In the case of “α-[(α,α-dimethyl-3,4-dimethoxyphenethylamino)methyl]-2-n-butoxybenzylalcohol hydrochloride [Test compound 9]”, the “Minimum effective dose (blood sugar-lowering activity)” value in the data set with blood sugar [1] (oral, mice) was 1.0 mg/kg. For the same compound, in the data set with blood platelets (setting [3]), the “Platelet aggregation inhibiting activity” value is “+ (not less than 10% inhibition of platelet aggregation but said percentage inhibition was not higher than that of acetylsalicylic acid (100 μg/ml))”. For the same compound, in the data set with blood platelets (setting [4]), the “Inhibition (%) … (test compound group)” value is 33%.
For “α-[(α,α-dimethyl-3,4-dimethoxyphenethylamino)methyl]-2-methoxybenzylalcohol hydrochloride [Test compound 8]”, in that order: 1.0 mg/kg, “++” and 57%.
In the case of `CCCCOc1ccccc1C(O)CNC(C)(C)Cc1ccc(OC)cc1` (centres unmarked) [compound 4], the minimal effective dose with blood sugar [1] (oral, mice) is 0.3 mg/kg.
For `COc1ccc(CC(C)(C)NCC(O)c2ccccc2Cl)cc1.Cl` (stereo not drawn) [Test compound 5, α-[(α,α-dimethyl-4-methoxyphenethylamino)-methyl]-2-chlorobenzylalcohol hydrochloride], the minimal effective dose with blood sugar [1] (po) turned out to be 0.1 mg/kg.
In the case of “α-[(α,α-dimethyl-3,4-methylenedioxyphenethylamino)methyl]-2-benzyloxybenzylalcohol 1/2 oxalate [Test compound 16]”, in the data set with blood sugar [1] (oral, mice), the “Minimum effective dose (blood sugar-lowering activity)” value worked out at 0.3 mg/kg. In addition, the “Platelet aggregation inhibiting activity” value in the data set with blood platelets (setting [3]) is given as “+ (not less than 10% inhibition of platelet aggregation but said percentage inhibition was not higher than that of acetylsalicylic acid (100 μg/ml))”. Moreover, the “Inhibition (%) … (test compound group)” value in the data set on blood platelets (setting [4]) is on record as 29%.
Consider “α-[(α,α-dimethyl-2,3,4-trimethoxyphenethylamino)methyl]- 2-hydroxybenzylalcohol 1/2 oxalate [Test compound 11]”, for which, in the data set on blood sugar [1] (oral, mice), the “Minimum effective dose (blood sugar-lowering activity)” value is recorded as 1.0 mg/kg. For the same compound, the “Platelet aggregation inhibiting activity” value in the data set on blood platelets (setting [3]) is on record as “++”. In the data set with blood platelets (setting [4]), the “Inhibition (%) … (test compound group)” value amounted to 59%.
